# Results reported in patent US8802597B2, “Herbicidal pyrimidines” (E I du Pont de Nemours and Company, priority 2003, dated 2014).
# Read-outs that look alike come from different tables or passages of the source.
# Tests used:
# Assay type in all cases: in vivo
# [1] = tested on: winter barley (Hordeum vulgare); assay: Test C postemergence; conditions: for Barley plant response rating: scale 0 to 100 (0 no effect, 100 complete control)
# Summary of the method: (§1)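 Injury scored visually 12–14 days after application on 0–100 scale (100 = complete control), relative to controls. Compounds, formulated with surfactant in non-phytotoxic solvent, applied to soil at planting (pre) or to 1- to 4-leaf plants 2–18 cm tall (post) in greenhouse.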
# [2] = tested on: green foxtail (Setaria viridis); assay: Test C postemergence; conditions: for Foxtail, Green plant response rating: scale 0 to 100 (0 no effect, 100 complete control)
# Summary of the method: as §1
# wild oat (Avena fatua) = assay: Test C postemergence; conditions: for Oat, Wild plant response rating: scale 0 to 100 (0 no effect, 100 complete control)
# Summary of the method: as §1
# [3] = tested on: wheat (Triticum aestivum); assay: Test C postemergence; conditions: for Wheat plant response rating: scale 0 to 100 (0 no effect, 100 complete control)
# Summary of the method: as §1
# [4] = tested on: windgrass (Apera spica-venti); assay: Test C postemergence; conditions: for Windgrass plant response rating: scale 0 to 100 (0 no effect, 100 complete control)
# Summary of the method: as §1
# [5] = tested on: canarygrass (Phalaris minor); assay: Test C postemergence; conditions: for Canarygrass plant response rating: scale 0 to 100 (0 no effect, 100 complete control)
# Summary of the method: as §1
# [6] = tested on: downy brome (Bromus tectorum); assay: Test C postemergence; conditions: for Bromegrass, Downy plant response rating: scale 0 to 100 (0 no effect, 100 complete control)
# Summary of the method: as §1
# [7] = tested on: blackgrass (Alopecurus myosuroides); assay: Test C postemergence; conditions: for Blackgrass plant response rating: scale 0 to 100 (0 no effect, 100 complete control)
# Summary of the method: as §1
# [8] = tested on: Italian ryegrass (Lolium multiflorum); assay: Test C postemergence; conditions: for Ryegrass, Italian plant response rating: scale 0 to 100 (0 no effect, 100 complete control)
# Summary of the method: as §1
# [9] = tested on: crabgrass (Digitaria sanguinalis); assay: Test A pre/postemergence; conditions: for pest or weed control at 125 g/ha / pest or weed control at 500 g/ha: Digitaria sanguinalis, 240 h, read-out: Plant response rating, Crabgrass
# Summary of the method: (§2)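 After planting in loam and sand, species received test chemical as preemergence soil spray; postemergence spray went on 2–10 cm plants at 1–2 leaves at the same time. Evaluation: visual injury, ~10 d, 0 no effect to 100 complete control.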
# [10] = tested on: redroot pigweed (Amaranthus retroflexus); assay: Test A pre/postemergence; conditions: for pest or weed control at 125 g/ha / pest or weed control at 500 g/ha: Amaranthus retroflexus, 240 h, read-out: Plant response rating, Pigweed
# Summary of the method: as §2
# [11] = tested on: morningglory (Ipomoea spp.); assay: Test A pre/postemergence; conditions: for pest or weed control at 125 g/ha / pest or weed control at 500 g/ha: Ipomoea, 240 h, read-out: Plant response rating, Morningglory
# Summary of the method: as §2
# [12] = tested on: velvetleaf (Abutilon theophrasti); assay: Test A pre/postemergence; conditions: for pest or weed control at 125 g/ha / pest or weed control at 500 g/ha: Abutilon theophrasti, 240 h, read-out: Plant response rating, Velvetleaf
# Summary of the method: as §2
# [13] = Postemergence, 125 g ai/ha, 0 to 100 scale (0 no effect, 100 complete control)
# [14] = Postemergence, 500 g ai/ha, 0 to 100 scale (0 no effect, 100 complete control)
# [15] = Preemergence, 125 g ai/ha, 0 to 100 scale where 0 is no effect and 100 is complete control, approximately ten days
# [16] = Preemergence, 500 g ai/ha, 0 to 100 scale where 0 is no effect and 100 is complete control, approximately ten days
# [17] = post-emergence, Postemergence, 125 g ai/ha, 0 to 100 scale (0 no effect, 100 complete control)
# [18] = post-emergence, Postemergence, 500 g ai/ha, 0 to 100 scale (0 no effect, 100 complete control)
# [19] = pre-emergence, Preemergence, 125 g ai/ha, 0 to 100 scale where 0 is no effect and 100 is complete control, approximately ten days
# [20] = pre-emergence, Preemergence, 500 g ai/ha, 0 to 100 scale where 0 is no effect and 100 is complete control, approximately ten days
smiles,measurement,setting,value
CCOC(=O)C(Cl)(Cl)c1nc(C2CC2)nc(N)c1Br [Compound 34],"Plant response rating (scale of 0 to 100), Barley",[1]; 31 g ai/ha,20
same,Barley plant response rating,[1]; 62 g ai/ha,20
same,Barley plant response rating,[1]; 125 g ai/ha,30
same,"Plant response rating, Barley","[1]; 250 g ai/ha, scale 0 to 100",40
same,"Plant response rating (scale of 0 to 100), Foxtail, Green",[2]; 31 g ai/ha,40
same,"Foxtail, Green plant response rating",[2]; 62 g ai/ha,40
same,"Foxtail, Green plant response rating",[2]; 125 g ai/ha,45
same,"Plant response rating, Foxtail, Green","[2]; 250 g ai/ha, scale 0 to 100",45
same,"Plant response rating (scale of 0 to 100), Oat, Wild",wild oat (Avena fatua); 31 g ai/ha,20
same,"Oat, Wild plant response rating",wild oat (Avena fatua); 62 g ai/ha,40
same,"Oat, Wild plant response rating",wild oat (Avena fatua); 125 g ai/ha,45
same,"Plant response rating, Oat, Wild","wild oat (Avena fatua); 250 g ai/ha, scale 0 to 100",50
same,"Plant response rating (scale of 0 to 100), Wheat",[3]; 31 g ai/ha,0
same,Wheat plant response rating,[3]; 62 g ai/ha,20
same,Wheat plant response rating,[3]; 125 g ai/ha,30
same,"Plant response rating, Wheat","[3]; 250 g ai/ha, scale 0 to 100",35
same,"Plant response rating (scale of 0 to 100), Windgrass",[4]; 31 g ai/ha,40
same,Windgrass plant response rating,[4]; 62 g ai/ha,40
same,Windgrass plant response rating,[4]; 125 g ai/ha,50
same,"Plant response rating, Windgrass","[4]; 250 g ai/ha, scale 0 to 100",60
same,"Plant response rating (scale of 0 to 100), Canarygrass",[5]; 31 g ai/ha,20
same,Canarygrass plant response rating,[5]; 62 g ai/ha,30
same,Canarygrass plant response rating,[5]; 125 g ai/ha,35
same,"Plant response rating, Canarygrass","[5]; 250 g ai/ha, scale 0 to 100",45
same,"Plant response rating (scale of 0 to 100), Bromegrass, Downy",[6]; 31 g ai/ha,0
same,"Bromegrass, Downy plant response rating",[6]; 62 g ai/ha,0
same,"Bromegrass, Downy plant response rating",[6]; 125 g ai/ha,30
same,"Plant response rating, Bromegrass, Downy","[6]; 250 g ai/ha, scale 0 to 100",35
same,"Plant response rating (scale of 0 to 100), Blackgrass",[7]; 31 g ai/ha,0
same,Blackgrass plant response rating,[7]; 62 g ai/ha,35
same,Blackgrass plant response rating,[7]; 125 g ai/ha,35
same,"Plant response rating, Blackgrass","[7]; 250 g ai/ha, scale 0 to 100",45
same,"Plant response rating (scale of 0 to 100), Ryegrass, Italian",[8]; 31 g ai/ha,40
same,"Ryegrass, Italian plant response rating",[8]; 62 g ai/ha,40
same,"Ryegrass, Italian plant response rating",[8]; 125 g ai/ha,45
same,"Plant response rating, Ryegrass, Italian","[8]; 250 g ai/ha, scale 0 to 100",60
COC(=O)c1nc(-c2ccc(I)cc2)nc(N)c1Br [Compound 128],"Plant response rating, Crabgrass",[9]; [13],0
same,"Plant response rating, Crabgrass",[9]; [14],0
same,"Plant response rating, Crabgrass",[9]; [15],0
same,"Plant response rating, Crabgrass",[9]; [16],0
same,"Plant response rating, Pigweed",[10]; [13],55
same,"Plant response rating, Pigweed",[10]; [14],75
same,"Plant response rating, Pigweed",[10]; [15],0
same,"Plant response rating, Pigweed",[10]; [16],0
same,"Plant response rating, Morningglory",[11]; [13],55
same,"Plant response rating, Morningglory",[11]; [14],80
same,"Plant response rating, Morningglory",[11]; [15],0
same,"Plant response rating, Morningglory",[11]; [16],0
same,"Plant response rating, Velvetleaf",[12]; [13],65
same,"Plant response rating, Velvetleaf",[12]; [14],80
same,"Plant response rating, Velvetleaf",[12]; [15],0
same,"Plant response rating, Velvetleaf",[12]; [16],0
CCOC(=O)c1nc(-c2ccc3c(c2)OCO3)nc(N)c1Cl [Compound 74],pest or weed control at 125 g/ha,[9]; [17],30%
same,pest or weed control at 500 g/ha,[9]; [18],60%
same,pest or weed control at 125 g/ha,[9]; [19],20%
same,pest or weed control at 500 g/ha,[9]; [20],50%
same,pest or weed control at 125 g/ha,[10]; [17],60%
same,pest or weed control at 500 g/ha,[10]; [18],70%
same,pest or weed control at 125 g/ha,[10]; [19],0%
same,pest or weed control at 500 g/ha,[10]; [20],40%
same,pest or weed control at 125 g/ha,[11]; [17],40%
same,pest or weed control at 500 g/ha,[11]; [18],30%
same,pest or weed control at 125 g/ha,[11]; [19],0%
same,pest or weed control at 500 g/ha,[11]; [20],30%
same,pest or weed control at 125 g/ha,[12]; [17],70%
same,pest or weed control at 500 g/ha,[12]; [18],80%
same,pest or weed control at 125 g/ha,[12]; [19],30%
same,pest or weed control at 500 g/ha,[12]; [20],50%
